Assay results reported in article PMC9959130, “Effects of Side Chain and Peptide Bond Modifications on the Targeting Properties of Stabilized Minigastrin Analogs” (Pharmaceuticals, 2023).
Read-outs that look alike come from different tables or passages of the source. Where a SMILES comes first, the peptide text is derived from it. [ ]: non-standard residue; d: D form. The star is where a group is joined. DOTA = O=C(O)CN1CCN(CC(=O)O)CCN(CC(=O)*)CCN(CC(=O)O)CC1; 1Nal = N[C@@H](Cc1cccc2ccccc12)C(=O)O; NMeNle = CCCC[C@H](NC)C(=O)O

How the values were obtained:
human CCK2R [1] = biological target: T1, human CCK2R (Homo sapiens, UniProt P32239); experiment: Calcium mobilization assay (fluo-4 AM) on A431-CCK2R cells; format: cell-based; details: normalized to 10^−6 M pentagastrin, mean ± SEM of at least three independent experiments in triplicates
T1 construct: expressed in transfected cells; host or cells: A431 human epidermoid carcinoma cells, stably transfected (A431-CCK2R); originally provided by Dr. Luigi Aloj
T1 sequence (P32239 1-447): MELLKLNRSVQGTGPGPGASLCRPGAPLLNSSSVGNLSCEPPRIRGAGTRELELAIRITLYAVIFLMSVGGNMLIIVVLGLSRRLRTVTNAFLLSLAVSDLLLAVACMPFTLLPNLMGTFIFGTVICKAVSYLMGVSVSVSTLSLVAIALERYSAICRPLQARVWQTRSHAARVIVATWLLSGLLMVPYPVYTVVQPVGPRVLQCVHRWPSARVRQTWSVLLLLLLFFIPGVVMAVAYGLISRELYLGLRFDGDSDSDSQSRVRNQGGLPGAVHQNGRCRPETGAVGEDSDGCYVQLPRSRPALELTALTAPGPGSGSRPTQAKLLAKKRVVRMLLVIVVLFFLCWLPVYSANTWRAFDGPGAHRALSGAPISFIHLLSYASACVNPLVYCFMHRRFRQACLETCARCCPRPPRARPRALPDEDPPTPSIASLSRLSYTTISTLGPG
From the text: (§1) A431 human epidermoid carcinoma cells overexpressing human CCK2R through stable transfection (A431-CCK2R) and the same cell line transfected with the empty vector (A431-mock) were used for cell assays. The cells are constantly available in our laboratory and were originally provided by Dr. Luigi Aloj. All cell culture media and reagents were obtained from Invitrogen Corporation (Lofer, Austria) or Sigma-Aldrich (Darmstadt, Germany). Dulbecco’s modified Eagle’s medium (DMEM) supplemented with 10% (v/v) fetal bovine serum and 1% of 100x penicillin−streptomycin−glutamine was used for cell culture. The cells were passaged three times per week using a 10x 2.5% trypsin-EDTA solution in a 1:2–1:3 ratio.
Analog-induced receptor activation was evaluated by a calcium mobilization assay using the calcium-sensitive dye fluo-4 AM (ThermoFisher Scientific, Montigny-Le-Bretonneux, France), as previously described. Briefly, A431-CCK2R cells were seeded (60,000/well) in flat clear bottom black 96-well plates (Corning, Bagneaux-sur-Loing, France) coated with poly-L-ornithine (100 µg/mL, 1 h, 37 °C) (Sigma Aldrich, Saint Quentin Fallavier, France). Cytosolic Ca^2+ variations were measured before and after application of 50 µL of graded concentrations of the investigated peptides in the vicinity of the cells, and the effects on Ca^2+ mobilization were measured. Data were background corrected and normalized for the amplitudes caused by the medium alone (0%, no self-effect) or 10^−6 M pentagastrin (100%, maximal Ca^2+ mobilization response). Prism 4.0 software was used to calculate the EC50 values and the results were expressed as mean ± SEM for at least three independent experiments performed in triplicates.

human CCK2R [2] = biological target: T1, human CCK2R; experiment: Competitive binding assay against [125I][3-iodo-Tyr12,Leu15]gastrin-I on A431-CCK2R cells; details: unlabeled peptide, 1 h at RT, radioligand [125I][3-iodo-Tyr12,Leu15]gastrin-I, mean ± sd of three independent experiments in triplicates
From the text: as §1
Receptor affinity studies of the DOTA-conjugates for the CCK2R was competitively evaluated against [^125I][3-iodo-Tyr^12,Leu^15]gastrin-I. The binding assays were performed in 96-well filter plates (MultiScreenHTS-FB, Merck Group, Darmstadt, Germany) as previously described. A431-CCK2R cells (200,000–400,000/well) were incubated for 1 h at RT with the peptides (concentration range of 0.01–1000 nM) and [^125I][3-iodo-Tyr^12,Leu^15]gastrin-I (~25,000 cpm). The incubation was arrested by filtering the medium by vacuum and rinsing twice rapidly with ice-cold binding assay buffer (10 mM TRIS/139 mM NaCl, pH 7.3). The filters were removed from the plate, transferred into 4.5 mL tubes and measured in the γ-counter. Data were normalized from 0 to 100 for graphical representation of exemplary binding curves. Origin software (Microcal Origin 6.1, Northampton, MA, USA) was used to calculate the half maximal inhibitory concentration (IC50) values by nonlinear regression and expressed as mean ± sd for three independent experiments performed in triplicates. An additional cell uptake study at 2 h after incubation was performed for DOTA-[(N-Me)1Nal^8]MGS5 radiolabeled with gallium-68 and lutetium-177 (see Figure S4 of the Supplementary Materials).

[3] = Binding to serum proteins (incubation in human serum, Sephadex G-50 size exclusion chromatography); format: in vitro ADME; details: 37 °C; for Binding to Serum Proteins (%): 500 pmol/mL
Procedure: Protein binding was determined by incubation of the radiolabeled peptides in human serum at 37 °C (500 pmol/mL, n = 2). For the time points of 1, 4, and 24 h after incubation, samples of 25 µL were subjected to Sephadex G-50 size exclusion chromatography (GE Healthcare Illustra, Little Chalfont, UK). The column and the eluate were measured using the γ-counter and the percentage of protein binding was calculated.

[4] = In vitro stability in human serum (intact radiopeptide by radio-HPLC); format: in vitro ADME; details: fresh human serum, 37 °C, n = 2; for Intact Radiopeptide in Human Serum (%): 1000 pmol/mL
Procedure: (§2) In vitro stability studies were performed in human serum (n = 2). The radiolabeled peptides (1000 pmol/mL) were incubated at 37 °C and a sample of 100 μL was taken at 1, 4, and 24 h after incubation. After the precipitation of proteins with ACN at 1:1.5 (v/v), centrifugation (14,000 rpm, 2 min, centrifuge 5424, Eppendorf AG, Germany) and dilution with water at 1:1 (v/v), an aliquot of 100 μL of this solution was analyzed by HPLC. Radioligand breakdown was monitored and the percentage of intact radiopeptide was calculated using Chromeleon Dionex Software (Version 7.2.9.11323). Additionally, the radiolabeled peptides (1000 pmol/mL) were incubated in PBS (n = 1) at room temperature to confirm the complex stability as a control.

[5] = Distribution coefficient (LogD) in octanol/PBS; format: physicochemical; details: radiolabeled peptide (111In-labeled where the label names no radiometal), shake-flask octanol/PBS, 100 pmol/mL, 15 min shaking at 1500 rpm, γ-counter, mean ± SD, n = 8
Procedure: The distribution coefficient (LogD) in octanol/PBS was determined by mixing 0.5 mL of the radiolabeled DOTA peptides diluted in PBS (100 pmol/mL) and 0.5 mL octanol in a 1.5 mL microcentrifuge tube (n = 8). After shaking for 15 min (MS3 Basic, IKA, Staufen, Germany) at 1500 rpm and a waiting time of 10 min to ensure appropriate separation of the two phases, 100 µL aliquots of each phase were pipetted into 4.5 mL tubes. The tubes were measured using a γ-counter (2480 Wizard2 3″, PerkinElmer Life Sciences and Analytical Instruments, formerly Wallac Oy, Turku, Finland) and the LogD value was determined using following equation: LogD=Log(cpmoctanol phase/cpmPBS phase)

Complex stability in PBS = format: physicochemical; details: 1000 pmol/mL in PBS, room temperature, 4 h after incubation, n = 1
Procedure: as §2

[6] = radiolabeled peptide (111In where no radiometal named), 24 h after incubation, Sephadex G-50, γ-counter, n = 2
[7] = radiolabeled peptide (111In where no radiometal named), 24 h after incubation

In the case of `CCCC[C@@H](C(=O)N[C@@H](CC(=O)O)C(=O)N[C@@H](Cc1cccc2ccccc12)C(=O)NC)N(C)C(=O)[C@H](Cc1c[nH]c2ccccc12)NC(=O)CNC(=O)[C@H](Cc1ccc(O)cc1)NC(=O)[C@H](C)NC(=O)[C@@H](CCC(=O)O)NC(=O)CN1CCN(CC(=O)O)CCN(CC(=O)O)CCN(CC(=O)O)CC1` [DOTA-MGS5[NHCH3]], the EC50 (human CCK2R [1]) is reported as 41 ± 14.7 nM and the IC50 (human CCK2R [2]) is reported as 13.2 ± 1.5 nM.
`CCCC[C@@H](C(=O)N[C@@H](CC(=O)O)C(=O)N[C@@H](Cc1ccc2ccccc2c1)C(N)=O)N(C)C(=O)[C@H](Cc1c[nH]c2ccccc12)NC(=O)CNC(=O)[C@H](Cc1ccc(O)cc1)NC(=O)[C@H](C)NC(=O)[C@@H](CCC(=O)O)NC(=O)CN1CCN(CC(=O)O)CCN(CC(=O)O)CCN(CC(=O)O)CC1` [DOTA-[2Nal^8]MGS5] showed an EC50 (human CCK2R [1]) of 12.8 ± 2.4 nM and an IC50 (human CCK2R [2]) of 1.7 ± 0.1 nM.
`CCCC[C@@H](C(=O)N[C@@H](CC(=O)O)C(=O)N(C)[C@@H](Cc1cccc2ccccc12)C(N)=O)N(C)C(=O)[C@H](Cc1c[nH]c2ccccc12)NC(=O)CNC(=O)[C@H](Cc1ccc(O)cc1)NC(=O)[C@H](C)NC(=O)[C@@H](CCC(=O)O)NC(=O)CN1CCN(CC(=O)O)CCN(CC(=O)O)CCN(CC(=O)O)CC1` [DOTA-[(N-Me)1Nal^8]MGS5] showed an EC50 (human CCK2R [1]) of 63.4 ± 19.9 nM and an IC50 (human CCK2R [2]) of 2.7 ± 0.3 nM.
`CCCC[C@@H](C(=O)N[C@@H](CC(=O)O)C(=O)N[C@@H](Cc1cccc2ccccc12)C(N)=O)N(C)C(=O)[C@H](Cc1c[nH]c2ccccc12)NC(=O)CNC(=O)[C@H](Cc1ccc(O)cc1)NC(=O)[C@H](C)NC(=O)[C@@H](CCCCN)NC(=O)CN1CCN(CC(=O)O)CCN(CC(=O)O)CCN(CC(=O)O)CC1` [DOTA-[DLys^1]MGS5] ({DOTA}-[dK]AYGW[NMeNle]D[1Nal]-NH2) [listing 1 of 2 here] showed an EC50 (human CCK2R [1]) of 43.5 ± 14.1 nM and an IC50 (human CCK2R [2]) of 0.9 ± 0.8 nM.
For `CCCC[C@@H](C(=O)N[C@@H](CC(=O)O)C(=O)N[C@@H](Cc1cccc2ccccc12)C(N)=O)N(C)C(=O)[C@H](Cc1c[nH]c2ccccc12)NC(=O)CNC(=O)[C@H](Cc1ccc(O)cc1)NC(=O)[C@H](C)NC(=O)[C@@H](CCCCN)NC(=O)CN1CCN(CC(=O)O)CCN(CC(=O)O)CCN(CC(=O)O)CC1` [DOTA-[DLys^1]MGS5] ({DOTA}-[dK]AYGW[NMeNle]D[1Nal]-NH2) [listing 2 of 2 here], the “Binding to Serum Proteins (%)” value [3, 6] was 27.8 ± 0.4%, the “Intact Radiopeptide in Human Serum (%)” value [4, 7] was 98.1 ± 1.1% and the LogD [5] was −1.3 ± 0.1.
Work on `CCCC[C@@H](C(=O)N[C@@H](CC(=O)O)C(=O)N[C@@H](Cc1ccccc1)C(N)=O)N(C)C(=O)[C@H](Cc1c[nH]c2ccccc12)NC(=O)CNC(=O)[C@H](Cc1ccc(O)cc1)NC(=O)[C@H](C)NC(=O)[C@@H](CCC(=O)O)NC(=O)CN1CCN(CC(=O)O)CCN(CC(=O)O)CCN(CC(=O)O)CC1` [DOTA-[Phe^8]MGS5] ({DOTA}-[dE]AYGW[NMeNle]DF-NH2) [listing 1 of 2 here] yielded an EC50 (human CCK2R [1]) of 6.3 ± 3.6 nM and an IC50 (human CCK2R [2]) of 0.7 ± 0.1 nM.
For `CCCC[C@@H](C(=O)N[C@@H](CC(=O)O)C(=O)N[C@@H](Cc1ccccc1)C(N)=O)N(C)C(=O)[C@H](Cc1c[nH]c2ccccc12)NC(=O)CNC(=O)[C@H](Cc1ccc(O)cc1)NC(=O)[C@H](C)NC(=O)[C@@H](CCC(=O)O)NC(=O)CN1CCN(CC(=O)O)CCN(CC(=O)O)CCN(CC(=O)O)CC1` [DOTA-[Phe^8]MGS5] ({DOTA}-[dE]AYGW[NMeNle]DF-NH2) [listing 2 of 2 here], the “Binding to Serum Proteins (%)” value [3, 6] was 20.2 ± 1.6%, the “Intact Radiopeptide in Human Serum (%)” value [4, 7] was 54.0 ± 0.8% and the LogD [5] was −3.2 ± 0.1.
For `CCCC[C@@H](C(=O)N[C@@H](CC(=O)O)C(=O)N[C@@H](Cc1ccccc1)C(N)=O)N(C)C(=O)[C@H](Cc1c[nH]c2ccccc12)NC(=O)CNC(=O)[C@H](Cc1ccc(O)cc1)NC(=O)[C@H](C)NC(=O)[C@@H](CCC(=O)O)NC(=O)CN1CCN(CC(=O)O)CCN(CC(=O)O)CCN(CC(=O)O)CC1` [[^111In]In-DOTA-[Phe^8]MGS5, metal not drawn] ({DOTA}-[dE]AYGW[NMeNle]DF-NH2), the fraction unbound at 1 h, 500 pmol/mL ([3]; human, radiolabeled peptide, 1 h after incubation, Sephadex G-50, n = 2) was 0.919, the fraction unbound at 4 h, 500 pmol/mL ([3]; human, radiolabeled peptide, 4 h after incubation, Sephadex G-50, n = 2) was 0.882 and the fraction unbound at 24 h, 500 pmol/mL [3, 6] was 0.798. The remaining at 1 h, 1000 pmol/mL ([4]; human, radiolabeled peptide, 1 h after incubation) was 99.5 ± 0.7%, the remaining at 4 h, 1000 pmol/mL ([4]; human, radiolabeled peptide, 4 h after incubation) was 92.5 ± 0.7% and the remaining at 24 h, 1000 pmol/mL [4, 7] was 54 ± 0.8%. For the same compound, the LogD ([5]; read-out: LogD) was -3.19 ± 0.06.
For `CCCC[C@@H](C(=O)N[C@@H](CC(=O)O)C(=O)N(C)[C@@H](Cc1cccc2ccccc12)C(N)=O)N(C)C(=O)[C@H](Cc1c[nH]c2ccccc12)NC(=O)CNC(=O)[C@H](Cc1ccc(O)cc1)NC(=O)[C@H](C)NC(=O)[C@@H](CCC(=O)O)NC(=O)CN1CCN(CC(=O)O)CCN(CC(=O)O)CCN(CC(=O)O)CC1` [[^177Lu]Lu-DOTA-[(N-Me)1Nal^8]MGS5] [metal not drawn], the “Stability of the DOTA-complex in PBS” value (Complex stability in PBS) was 99%.
